Source: patent US9834571B2, “Compounds for inhibiting cell proliferation in EGFR-driven cancers” (ARIAD Pharmaceuticals, Inc., priority 2012, dated 2017)
Read-outs that look alike come from different tables or passages of the source.

Columns and labels:
[1] = target: human EGFR (native sequence) (Homo sapiens, UniProt P00533); experiment: Kinase inhibitory activity against human EGFR (native sequence); assay type: biochemical; details: 10 μM ATP, read-out: IC50 for kinase inhibition, EGFR
Method: (§1) Kinase inhibitory activity of the compounds was measured against human EGFR (native sequence) and against EGFR bearing the L858R mution and the L858R/T790M double mutation (EGFR, L858R, and L858R/T790M, respectively in Table 1). Additional assays can be conducted with EGFR deletion mutants such as delE746-A750 with or without the additional T790M mutation. Assay conditions included 10 pt curves with 3 μM top concentration (singlicates) and 10 μM ATP.

EGFR L858R = EGFR L858R (Homo sapiens, UniProt P00533, L858R); experiment: Kinase inhibitory activity against EGFR bearing the L858R mutation; assay type: biochemical; details: 10 μM ATP, read-out: IC50 for kinase inhibition, EGFR L858R
Method: as §1

EGFR L858R/T790M = EGFR L858R/T790M (Homo sapiens, UniProt P00533, L858R/T790M); experiment: Kinase inhibitory activity against EGFR bearing the L858R/T790M double mutation; assay type: biochemical; details: 10 μM ATP, read-out: IC50 for kinase inhibition, EGFR L858R T790M
Chain of EGFR L858R/T790M (P00533 25-1210 T790M/L858R): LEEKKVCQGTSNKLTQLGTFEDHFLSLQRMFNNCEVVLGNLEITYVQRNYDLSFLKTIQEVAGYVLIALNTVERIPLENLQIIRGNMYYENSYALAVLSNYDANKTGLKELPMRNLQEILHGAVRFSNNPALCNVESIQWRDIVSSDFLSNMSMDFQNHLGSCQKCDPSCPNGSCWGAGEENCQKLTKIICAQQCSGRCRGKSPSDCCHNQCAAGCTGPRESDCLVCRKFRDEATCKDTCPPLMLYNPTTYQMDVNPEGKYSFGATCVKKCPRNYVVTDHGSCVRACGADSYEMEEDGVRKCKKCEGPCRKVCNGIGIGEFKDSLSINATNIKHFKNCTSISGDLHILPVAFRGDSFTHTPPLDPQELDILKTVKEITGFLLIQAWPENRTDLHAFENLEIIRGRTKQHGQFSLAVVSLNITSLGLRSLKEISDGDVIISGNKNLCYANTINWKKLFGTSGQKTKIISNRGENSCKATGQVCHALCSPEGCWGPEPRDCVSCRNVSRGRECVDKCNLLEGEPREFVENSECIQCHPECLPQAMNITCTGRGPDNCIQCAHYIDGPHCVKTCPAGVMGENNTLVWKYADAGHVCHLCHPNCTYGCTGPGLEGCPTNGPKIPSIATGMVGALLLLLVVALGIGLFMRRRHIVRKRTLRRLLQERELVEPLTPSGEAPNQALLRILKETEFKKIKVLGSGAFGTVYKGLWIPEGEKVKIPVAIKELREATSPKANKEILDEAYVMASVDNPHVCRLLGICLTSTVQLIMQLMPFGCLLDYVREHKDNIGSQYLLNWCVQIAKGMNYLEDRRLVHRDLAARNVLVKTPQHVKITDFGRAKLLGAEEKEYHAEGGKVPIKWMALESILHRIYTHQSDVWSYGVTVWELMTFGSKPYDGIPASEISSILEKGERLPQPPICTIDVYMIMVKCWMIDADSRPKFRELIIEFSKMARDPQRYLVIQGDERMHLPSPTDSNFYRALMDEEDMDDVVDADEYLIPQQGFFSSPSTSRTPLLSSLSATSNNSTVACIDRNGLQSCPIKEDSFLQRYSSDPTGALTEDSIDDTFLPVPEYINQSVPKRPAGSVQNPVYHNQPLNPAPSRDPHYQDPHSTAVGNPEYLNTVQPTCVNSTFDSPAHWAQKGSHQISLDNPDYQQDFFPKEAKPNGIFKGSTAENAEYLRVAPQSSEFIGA
Method: as §1

[2] = target: T1, BaF3 cells expressing the target EGFR mutations (Homo sapiens, UniProt P00533, T790M, cells depend on it, form not given); experiment: Antiproliferative activity (MTT) against BaF3 cells expressing the target EGFR mutations; assay type: cell-based; details: BAF3 EGFR DEL T790M PURO POOL cells, read-out: IC50, BAF3 EGFR DEL T790M PURO POOL
T1 construct: IC50, BAF3 EGFR DEL T790M PURO POOL; other: BAF3 EGFR DEL T790M PURO POOL cells, MTT; other: BAF3 EGFR DEL T790M PURO POOL cells; MTT
T1 sequence (P00533 with tags, fused parts or gaps DEL746-750/T790M, form open): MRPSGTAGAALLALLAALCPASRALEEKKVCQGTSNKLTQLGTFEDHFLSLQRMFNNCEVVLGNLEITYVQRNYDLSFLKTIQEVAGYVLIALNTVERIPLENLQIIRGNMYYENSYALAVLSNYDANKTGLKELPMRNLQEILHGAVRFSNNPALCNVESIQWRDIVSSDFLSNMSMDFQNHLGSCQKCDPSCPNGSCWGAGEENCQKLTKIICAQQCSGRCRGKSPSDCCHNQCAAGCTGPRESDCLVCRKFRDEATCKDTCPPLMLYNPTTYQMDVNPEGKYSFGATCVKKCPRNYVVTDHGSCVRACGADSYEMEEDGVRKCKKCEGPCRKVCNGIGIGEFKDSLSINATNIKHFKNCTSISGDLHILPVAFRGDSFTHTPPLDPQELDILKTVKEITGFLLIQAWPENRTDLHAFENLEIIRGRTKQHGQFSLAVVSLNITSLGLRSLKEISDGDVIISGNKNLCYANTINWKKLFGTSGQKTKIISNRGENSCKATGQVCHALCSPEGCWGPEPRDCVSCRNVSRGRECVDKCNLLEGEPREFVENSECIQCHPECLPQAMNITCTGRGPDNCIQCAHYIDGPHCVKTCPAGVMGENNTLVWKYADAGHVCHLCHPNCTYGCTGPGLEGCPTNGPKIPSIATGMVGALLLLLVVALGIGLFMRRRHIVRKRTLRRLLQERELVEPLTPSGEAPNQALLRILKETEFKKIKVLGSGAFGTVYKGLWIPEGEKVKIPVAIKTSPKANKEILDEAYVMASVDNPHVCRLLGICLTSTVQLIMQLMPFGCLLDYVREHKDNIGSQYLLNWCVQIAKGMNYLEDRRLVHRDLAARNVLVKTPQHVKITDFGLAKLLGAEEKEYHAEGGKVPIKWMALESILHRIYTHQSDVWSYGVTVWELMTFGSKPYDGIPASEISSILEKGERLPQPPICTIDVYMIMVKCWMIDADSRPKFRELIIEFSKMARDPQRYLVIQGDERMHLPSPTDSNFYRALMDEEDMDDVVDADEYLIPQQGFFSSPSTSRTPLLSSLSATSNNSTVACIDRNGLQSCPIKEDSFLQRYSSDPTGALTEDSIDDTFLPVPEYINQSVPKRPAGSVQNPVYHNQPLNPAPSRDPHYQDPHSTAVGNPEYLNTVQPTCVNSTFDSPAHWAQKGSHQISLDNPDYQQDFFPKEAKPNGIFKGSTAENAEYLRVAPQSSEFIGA
Method: (§2) We also assessed the antiproliferative activity of compounds of Formula (I) against BaF3 cells expressing the target EGFR mutations or control (i.e., cell lines expressing wildtype EGFR). Assays were conducted using MTT.

[3] = target: T2, BaF3 cells expressing the target EGFR mutations (Homo sapiens, UniProt P00533, T790M/L858R, cells depend on it); experiment: as above; assay type: cell-based; details: BAF3 EGFR L858R-T790M PURO POOL cells, read-out: IC50, BAF3 EGFR L858R-T790M PURO POOL
T2 construct: IC50, BAF3 EGFR L858R-T790M PURO POOL; other: BAF3 EGFR L858R-T790M PURO POOL cells, MTT; IC50, BAF3 EGFR L858R-T790M PURO POOL; other: BAF3 EGFR L858R-T790M PURO POOL cells; MTT
T2 sequence (P00533 whole entry T790M/L858R): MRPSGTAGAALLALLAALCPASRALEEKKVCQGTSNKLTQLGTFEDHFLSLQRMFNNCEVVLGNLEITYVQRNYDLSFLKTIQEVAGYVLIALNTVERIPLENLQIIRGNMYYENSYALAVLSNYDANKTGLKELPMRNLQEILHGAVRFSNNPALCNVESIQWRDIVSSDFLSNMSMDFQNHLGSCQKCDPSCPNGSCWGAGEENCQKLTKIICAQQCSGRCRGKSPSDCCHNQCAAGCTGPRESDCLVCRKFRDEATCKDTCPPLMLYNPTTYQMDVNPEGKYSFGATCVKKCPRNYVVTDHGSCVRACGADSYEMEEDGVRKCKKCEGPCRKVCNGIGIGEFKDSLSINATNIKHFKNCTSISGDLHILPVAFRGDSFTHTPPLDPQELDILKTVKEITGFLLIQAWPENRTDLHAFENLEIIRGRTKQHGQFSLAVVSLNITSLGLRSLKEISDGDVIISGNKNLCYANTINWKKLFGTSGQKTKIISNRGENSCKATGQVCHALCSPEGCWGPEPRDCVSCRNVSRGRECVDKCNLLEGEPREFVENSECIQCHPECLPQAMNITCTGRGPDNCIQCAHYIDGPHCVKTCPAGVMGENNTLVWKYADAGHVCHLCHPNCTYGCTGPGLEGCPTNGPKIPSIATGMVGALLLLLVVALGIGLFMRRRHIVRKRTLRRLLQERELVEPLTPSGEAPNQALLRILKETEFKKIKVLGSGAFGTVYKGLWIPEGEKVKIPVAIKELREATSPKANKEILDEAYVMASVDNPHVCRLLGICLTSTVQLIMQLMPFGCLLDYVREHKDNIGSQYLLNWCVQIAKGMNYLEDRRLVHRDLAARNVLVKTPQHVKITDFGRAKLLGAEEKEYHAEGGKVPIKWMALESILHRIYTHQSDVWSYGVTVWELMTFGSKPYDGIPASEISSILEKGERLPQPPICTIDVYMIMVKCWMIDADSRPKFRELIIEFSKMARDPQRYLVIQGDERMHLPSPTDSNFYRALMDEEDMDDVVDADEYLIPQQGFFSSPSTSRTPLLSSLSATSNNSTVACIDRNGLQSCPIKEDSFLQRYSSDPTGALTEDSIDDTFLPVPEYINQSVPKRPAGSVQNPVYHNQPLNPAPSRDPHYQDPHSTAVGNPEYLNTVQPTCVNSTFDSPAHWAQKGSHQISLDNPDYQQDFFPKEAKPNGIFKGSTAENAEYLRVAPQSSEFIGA
Method: as §2

[4] = tested on: BaF3 cells expressing wildtype EGFR; experiment: Antiproliferative activity (MTT) against control BaF3 cells expressing wildtype EGFR; assay type: cell-based
Method: as §2

[5] = 10 pt curves, 3 μM top concentration
[6] = Mus musculus, BAF3 parental cells
[7] = EGFR L858R/T790M double mutation
[8] = Mus musculus, BAF3 PARENTAL cells (control)

Chain of human EGFR (native sequence) (P00533 25-1210): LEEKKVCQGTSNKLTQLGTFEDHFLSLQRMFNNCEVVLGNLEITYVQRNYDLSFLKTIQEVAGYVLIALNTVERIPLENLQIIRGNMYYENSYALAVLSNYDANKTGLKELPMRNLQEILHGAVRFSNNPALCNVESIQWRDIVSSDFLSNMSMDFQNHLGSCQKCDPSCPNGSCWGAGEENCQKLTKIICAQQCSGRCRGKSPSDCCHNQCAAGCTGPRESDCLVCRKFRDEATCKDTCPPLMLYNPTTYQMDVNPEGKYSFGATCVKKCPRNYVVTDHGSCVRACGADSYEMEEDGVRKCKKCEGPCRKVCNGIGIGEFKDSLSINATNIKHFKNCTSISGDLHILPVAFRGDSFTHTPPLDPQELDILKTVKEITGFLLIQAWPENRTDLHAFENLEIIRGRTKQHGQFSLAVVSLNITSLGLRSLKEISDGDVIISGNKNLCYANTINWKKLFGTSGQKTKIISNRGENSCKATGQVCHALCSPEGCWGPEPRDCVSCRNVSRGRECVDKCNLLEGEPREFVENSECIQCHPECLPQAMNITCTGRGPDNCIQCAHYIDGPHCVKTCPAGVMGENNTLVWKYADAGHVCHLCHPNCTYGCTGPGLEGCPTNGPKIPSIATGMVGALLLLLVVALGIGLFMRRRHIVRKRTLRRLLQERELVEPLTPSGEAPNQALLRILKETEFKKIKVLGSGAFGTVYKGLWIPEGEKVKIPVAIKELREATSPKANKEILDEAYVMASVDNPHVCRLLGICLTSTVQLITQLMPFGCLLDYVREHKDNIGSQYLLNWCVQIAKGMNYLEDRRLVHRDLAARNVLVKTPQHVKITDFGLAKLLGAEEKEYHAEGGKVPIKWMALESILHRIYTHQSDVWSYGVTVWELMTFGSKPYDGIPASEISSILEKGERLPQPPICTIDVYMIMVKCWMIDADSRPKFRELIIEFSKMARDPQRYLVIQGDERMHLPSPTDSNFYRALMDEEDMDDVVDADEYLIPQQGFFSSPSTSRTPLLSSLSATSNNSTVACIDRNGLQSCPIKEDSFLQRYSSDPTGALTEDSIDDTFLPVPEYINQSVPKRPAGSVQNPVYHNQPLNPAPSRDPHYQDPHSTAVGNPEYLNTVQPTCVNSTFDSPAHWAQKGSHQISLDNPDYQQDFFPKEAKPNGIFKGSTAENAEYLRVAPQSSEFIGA

Row | SMILES | IC50 [1, 5] [nM] | IC50 (EGFR L858R; [5]) [nM] | IC50 (EGFR L858R/T790M; [5]) [nM] | GI50 [2] [nM] | GI50 [3] [nM] | IC50 [4, 6] [nM] | IC50 ([1]; human EGFR native sequence) [nM] | IC50 (EGFR L858R; EGFR L858R) [nM] | IC50 (EGFR L858R/T790M; [7]) [nM] | IC50 [4, 8] [nM] | IC50 ([4]; BAF3 parental cells) [nM]
1 | C=C(C)C(=O)Nc1cc(Nc2ncc(Cl)c(Nc3ccccc3P(C)(C)=O)n2)c(OC)cc1N1CC[C@@H](N(C)C)C1 (racemic) [Example 113, rac-(R)-N-(5-((5-chloro-4-((2-(dimethylphosphoryl)phenyl)amino)pyrimidin-2-yl)amino)-2-(3-(dimethylamino)pyrrolidin-1-yl)-4-methoxyphenyl)methacrylamide] | 101 to 250 | < 50 | < 50 | < 50 | < 50 | ≥ 250 | – | – | – | – | –
2 | C=CC(=O)Nc1cc(Nc2ncc(Cl)c(Nc3ccccc3P(C)(C)=O)n2)c(OC)cc1O[C@@H]1CCCN(C)C1 (single isomer, unassigned) [Example 14] | – | – | – | < 50 | < 50 | – | < 50 | < 50 | < 50 | ≥ 250 | –
3 | C=CC(=O)Nc1cc(Nc2ncc(Cl)c(Nc3ccccc3P(C)(C)=O)n2)c(OC)cc1O[C@H]1CCCN(C)C1 (single isomer, unassigned) [Example 16] | – | – | – | < 50 | < 50 | – | < 50 | < 50 | < 50 | ≥ 250 | –
4 | C=CC(=O)Nc1cc(Nc2ncc(Cl)c(Nc3ccccc3P(C)(C)=O)n2)c(OC)cc1N1CC[C@@H](N(C)C)C1 (stereo in doubt) [Example 26, rac-(R)-N-(5-((5-chloro-4-((2-(dimethylphosphoryl)phenyl)amino)pyrimidin-2-yl)amino)-2-(3-(dimethylamino)pyrrolidin-1-yl)-4-methoxyphenyl)acrylamide] | – | – | – | < 50 | < 50 | – | < 50 | < 50 | < 50 | ≥ 250 | –
5 | C=CC(=O)Nc1cc(Nc2ncc(Cl)c(Nc3ccccc3P(C)(C)=O)n2)c(OC)cc1N1CC[C@H](N(C)C)C1 (stereo in doubt) [Example 29, rac-(R)-N-(5-((5-chloro-4-((2-(dimethylphosphoryl)phenyl)amino)pyrimidin-2-yl)amino)-2-(3-(dimethylamino)pyrrolidin-1-yl)-4-methoxyphenyl)acrylamide] | – | – | – | < 50 | < 50 | – | < 50 | < 50 | < 50 | ≥ 250 | –
6 | C=CC(=O)Nc1cc(Nc2ncc(Cl)c(Nc3ccccc3P(C)(C)=O)n2)c(OC)cc1OCCN1CCCC1 [Example 1, N-(5-((5-chloro-4-((2-(dimethylphosphoryl)phenyl)amino)pyrimidin-2-yl)amino)-4-methoxy-2-(2-(pyrrolidin-1-yl)ethoxy)phenyl)acrylamide] | – | – | – | < 50 | < 50 | – | < 50 | < 50 | < 50 | ≥ 250 | –
7 | C=CC(=O)Nc1cc(Nc2ncc(Cl)c(Nc3ccccc3P(C)(C)=O)n2)c(OC)cc1OCCN1CCN(C)CC1 [Example 2, N-(5-((5-chloro-4-((2-(dimethylphosphoryl)phenyl)amino)pyrimidin-2-yl)amino)-4-methoxy-2-(2-(4-methylpiperazin-1-yl)ethoxy)phenyl)acrylamide] | – | – | – | ≥ 250 | – | – | 101 to 250 | < 50 | < 50 | ≥ 250 | –
8 | C=CC(=O)Nc1cc(Nc2ncc(Cl)c(Nc3ccccc3P(C)(C)=O)n2)c(OC)cc1OCC1CCN(C)CC1 [Example 3, N-(5-((5-chloro-4-((2-(dimethylphosphoryl)phenyl)amino)pyrimidin-2-yl)amino)-4-methoxy-2-((1-methylpiperidin-4-yl)methoxy)phenyl)acrylamide] | – | – | – | 101 to 250 | ≥ 250 | – | 50 to 100 | < 50 | < 50 | ≥ 250 | –
9 | C=CC(=O)Nc1cc(Nc2ncc(Cl)c(Nc3ccccc3P(C)(C)=O)n2)c(OC)cc1OCCN1CCOCC1 [Example 4, N-(5-((5-chloro-4-((2-(dimethylphosphoryl)phenyl)amino)pyrimidin-2-yl)amino)-4-methoxy-2-(2-morpholinoethoxy)phenyl)acrylamide] | – | – | – | 50 to 100 | 101 to 250 | – | < 50 | < 50 | < 50 | ≥ 250 | –
10 | C=CC(=O)Nc1cc(Nc2ncc(Cl)c(Nc3ccccc3P(C)(C)=O)n2)c(OC)cc1OC1CN(C)C1 [Example 17, N-(5-((5-chloro-4-((2-(dimethylphosphoryl)phenyl)amino)pyrimidin-2-yl)amino)-4-methoxy-2-((1-methylazetidin-3-yl)oxy)phenyl)acrylamide] | – | – | – | 50 to 100 | 101 to 250 | – | – | – | – | ≥ 250 | –
11 | C=CC(=O)Nc1cc(Nc2ncc(Cl)c(Nc3ccccc3P(C)(C)=O)n2)c(OC)cc1OCC1CCCN1C (stereo not shown) [Example 18, N-(5-((5-chloro-4-((2-(dimethylphosphoryl)phenyl)amino)pyrimidin-2-yl)amino)-4-methoxy-2-((1-methylpyrrolidin-2-yl)methoxy)phenyl)acrylamide] | – | – | – | < 50 | < 50 | – | – | – | – | ≥ 250 | –
12 | C=CC(=O)Nc1ccc(F)c(Nc2ncc(Cl)c(Nc3ccccc3P(C)(C)=O)n2)c1 [Example 54, N-(3-((5-chloro-4-((2-(dimethylphosphoryl)phenyl)amino)pyrimidin-2-yl)amino)-4-fluorophenyl)acrylamide] | – | – | – | < 50 | < 50 | – | – | – | – | ≥ 250 | –
13 | C=CC(=O)Nc1cc(Nc2ncc(Cl)c(Nc3ccccc3P(C)(C)=O)n2)c(OC)cc1OCC(CO)N(C)C (stereo not shown) [Example 66, N-(5-((5-chloro-4-((2-(dimethylphosphoryl)phenyl)amino)pyrimidin-2-yl)amino)-2-(2-(dimethylamino)-3-hydroxypropoxy)-4-methoxyphenyl)acrylamide] | – | – | – | 101 to 250 | ≥ 250 | – | – | – | – | ≥ 250 | –
14 | C=CC(=O)N1CCc2cc(OC)c(Nc3ncc(Cl)c(Nc4ccccc4P(C)(C)=O)n3)cc21 [Example 127, 1-(6-((5-chloro-4-((2-(dimethylphosphoryl)phenyl)amino)pyrimidin-2-yl)amino)-5-methoxyindolin-1-yl)prop-2-en-1-one] | – | – | – | 101 to 250 | ≥ 250 | ≥ 250 | – | – | – | – | –
15 | C=CC(=O)Nc1cc(Nc2ncc(Cl)c(Nc3ccccc3P(C)(C)=O)n2)c(C)cc1OC(COC)CN(C)C (stereo not shown) [Example 144, N-(5-((5-chloro-4-((2-(dimethylphosphoryl)phenyl)amino)pyrimidin-2-yl)amino)-2-((1-(dimethylamino)-3-methoxypropan-2-yl)oxy)-4-methylphenyl)acrylamide] | < 50 | – | – | < 50 | – | – | – | – | – | – | ≥ 250
16 | C=CC(=O)Nc1cc(Nc2ncc(Cl)c(Nc3ccccc3P(C)(C)=O)n2)c(Cl)cc1OC(COC)CN(C)C (stereo not shown) [Example 146, N-(4-chloro-5-((5-chloro-4-((2-(dimethylphosphoryl)phenyl)amino)pyrimidin-2-yl)amino)-2-((1-(dimethylamino)-3-methoxypropan-2-yl)oxy)phenyl)acrylamide] | < 50 | – | – | < 50 | – | – | – | – | – | – | ≥ 250
17 | C=CC(=O)Nc1cc(Cc2ncc(Cl)c(Nc3ccccc3P(C)(C)=O)n2)c(OC)cc1C#CCN1CCC(C)CC1 [Example 176, N-(5-((5-chloro-4-((2-(dimethylphosphoryl)phenyl)amino)pyrimidin-2-yl)methyl)-4-methoxy-2-(3-(4-methylpiperidin-1-yl)prop-1-yn-1-yl)phenyl)acrylamide] | < 50 | < 50 | < 50 | – | – | ≥ 250 | – | – | – | – | –
18 | C=CC(=O)Nc1cc(Cc2ncc(Cl)c(Nc3ccccc3P(C)(C)=O)n2)c(OC)cc1C#CCN(C)C(C)(C)C [Example 177, N-(2-(3-(tert-butyl(methyl)amino)prop-1-yn-1-yl)-5-((5-chloro-4-((2-(dimethylphosphoryl)phenyl)amino)pyrimidin-2-yl)methyl)-4-methoxyphenyl)acrylamide] | < 50 | < 50 | < 50 | – | – | ≥ 250 | – | – | – | – | –
